The results in this text go back to publication PMC11150675, “Simultaneous determination of multiple components in rat plasma by UPLC-MS/MS for pharmacokinetic studies after oral administration of Pogostemon cablin extract” (Frontiers in Pharmacology, 2024).

Data set [1] is described as follows: PK study in rats after single oral administration of Pogostemon cablin (PC) extract, plasma analysed by UPLC-MS/MS. The following applies: for detection in plasma after oral PC extract: no complete PK profile obtained; for shape of plasma concentration-time curve: Figure 2.
Protocol: (§1) The 100 μL plasma sample was combined with 20 μL of ME, 20 μL of IS (500 ng/mL), and 2.5 μL of FA, followed by vortexing for 1 min. This mixture underwent extraction with 600 μL ACN through vortexing at room temperature for 3 min. Subsequent to centrifugation at 14,000 rpm for a period of 10 min, the resulting supernatant was moved to another tube and dried under a stream of nitrogen. The dried residue was dissolved in 100 μL ME-ACN (50:50 v/v), followed by vortexing for 5 min, and subsequent centrifugation at 14,000 rpm for 10 min. Finally, 20 μL of the supernatant was used for analysis.
(§2) A concentration of 0.5 g/mL of PC extract was obtained by dissolving in 0.5% CMC-Na aqueous solution. The PC suspension of the 4.0 g/kg dose was given to rats by single oral administration. […] Subsequently, the plasma collected underwent centrifugation at a speed of 7000 rpm for a duration of 10 min. It was then moved to clean tubes and kept at a temperature of −80°C.
(§3) Data in this study was presented as the mean ± standard deviation (SD). The MassHunter Workstation software (version B.09.00, Agilent, United States) was utilized for determining the plasma levels of the 15 analytes. Additionally, PK parameters were analyzed using DAS 3.0 Software (Medical College of Wannan, China).
For data set [2] the following is noted: rat, in vivo, po, 4 g/kg.
Protocol: as §1, §2, §3
Setting [3] is: rat plasma, PC extract 4.0 g/kg single oral dose, n = 6.
[4] abbreviates: rat plasma, PC extract 4.0 g/kg oral.

Where two headings read alike, the source gives them in different places.

As a reminder, the Cmax is the maximum level reached in the sampled fluid or tissue. The term Tmax denotes the time at which the peak concentration occurs. Consider `O=c1cc(-c2ccc(O)cc2)oc2c([C@@H]3O[C@H](CO)[C@@H](O)[C@H](O)[C@H]3O)c(O)c([C@@H]3O[C@H](CO)[C@@H](O)[C@H](O)[C@H]3O)c(O)c12` [Vicenin-2, vicenin-2], for which, in data set [1] (setting [3]), the “AUC (0-tn)” value worked out at 968.0 ± 131.9 µg·h/L, the “AUC (0-∞)” value stood at 968.8 ± 132.9 ng·h/mL, the maximum concentration (Cmax) worked out at 249.4 ± 50.8 ng/mL and the T1/2z was 1.2 ± 0.6 h. For the same molecule, the Tmax in data set [1] (setting [3]) is recorded as 0.3 ± 0.1 h.
As for `COc1cc(O)c2c(=O)c(O)c(-c3ccc(OC)c(O)c3)oc2c1` [Ombuin, ombuin], in data set [1] (setting [3]), the “AUC (0-tn)” value came to 95.1 ± 28.1 µg·h/L, the “AUC (0-∞)” value amounted to 95.4 ± 28.4 ng·h/mL, the peak concentration (Cmax) came to 11.2 ± 1.5 ng/mL and the T1/2z is on record as 3.8 ± 1.8 h. The Tmax in data set [1] (setting [3]) came to 0.6 ± 0.2 h.
One may read the AUC as concentration integrated over time. The low end stands for less exposure, the high end for more exposure. The term AUC(0-inf) denotes the area under the concentration-time curve extrapolated to infinity. Low values mean low exposure, high ones high exposure. Usually half-life stands for the time in which the quantity being followed falls by half. Low values mean rapid decline, high ones slow decline. As to `C[C@@H]1O[C@@H](O[C@@H]2[C@@H](O)[C@H](OCCc3ccc(O)c(O)c3)O[C@H](CO)[C@H]2OC(=O)/C=C/c2ccc(O)c(O)c2)[C@H](O)[C@H](O)[C@H]1O` [Verbascoside, verbascoside], in data set [1] (male, rat, plasma, po, 4 g/kg), the AUC turned out to be 1700 ± 394 ng·h/mL, the AUC(0-inf) was found to be 1700 ± 394 ng·h/mL, the Cmax was found to be 554 ± 159 ng/mL and the Tmax was determined as 0.4 ± 0.3 h. In data set [1] (male, rat, plasma, po, 4 g/kg), the half-life was 2.6 ± 0.21 h.
`O=c1cc(-c2ccc(O)cc2)oc2cc(O[C@@H]3O[C@H](CO)[C@@H](O)[C@H](O)[C@H]3O)cc(O)c12` [Cosmosiin, cosmosiin] came in with a T1/2z in data set [2] of 3.7 ± 0.6 h.
For `O=c1c(O[C@@H]2O[C@H](CO)[C@H](O)[C@H](O)[C@H]2O)c(-c2ccc(O)c(O)c2)oc2cc(O)cc(O)c12` [Hyperoside, hyperoside], the “detection in plasma after oral PC extract” value (“detection in plasma” below) in data set [1] (setting [4]) is on record as “only detected in the initial plasma samples”.
For the molecule `COc1cc(O)c2c(=O)c(OC)c(-c3ccc(O)c(OC)c3)oc2c1` [Pachypodol, pachypodol], in data set [1] (male, rat, plasma, po, 4 g/kg), the area under the curve (AUC) was determined as 243 ± 63.5 ng·h/mL, the AUC(0-inf) turned out to be 243 ± 63.5 ng·h/mL, the highest level (Cmax) was 47.8 ± 15.9 ng/mL and the Tmax turned out to be 0.8 ± 0.2 h. For the same molecule, in data set [1] (male, rat, plasma, po, 4 g/kg), the half-life was 2 ± 0.1 h. Also, in data set [1] (rat plasma, PC extract oral), the “shape of plasma concentration-time curve” value was “double-peak phenomenon”.
Consider `O=c1cc(-c2ccc(O)cc2)oc2cc(O)cc(O)c12` [Apigenin, apigenin], for which, in data set [1] (male, rat, plasma, po, 4 g/kg), the AUC is 255 ± 65.5 ng·h/mL, the AUC(0-inf) was 255 ± 65.5 ng·h/mL, the peak level (Cmax) was 64.2 ± 15.8 ng/mL and the Tmax turned out to be 0.3 ± 0.2 h. In addition, in data set [1] (male, rat, plasma, po, 4 g/kg), the half-life is 2.7 ± 0.6 h. In data set [1] (rat plasma, PC extract oral), the “shape of plasma concentration-time curve” value is recorded as “double-peak phenomenon”.
As for `COc1cc(C(=O)O)ccc1O` [Vanillic acid, vanillic acid], in data set [1] (male, rat, plasma, po, 4 g/kg), the area under the curve (AUC) was 1310 ng·h/mL, the AUC(0-inf) stood at 1310 ng·h/mL, the Cmax came out at 116 ± 36.8 ng/mL and the Tmax is 1.4 ± 1.4 h. For the same molecule, the half-life in data set [1] (male, rat, plasma, po, 4 g/kg) was 2.5 ± 0.1 h.
Take `COc1ccc(-c2cc(=O)c3c(O)cc(O[C@@H]4O[C@H](CO)[C@@H](O)[C@H](O)[C@H]4O)cc3o2)cc1O` [Diosmetin-7-O-β-D-glucopyranoside, diosmetin-7-O-β-D-glucopyranoside]: the “detection in plasma” value in data set [1] (setting [4]) is “only detected in the initial plasma samples”.
Regarding `Cc1cc(O)c(C(=O)CCC(C)C)c(=O)o1` [Pogostone, pogostone], the “concentration maximum (Cmax)” value in data set [1] (setting [4]) is given as 37204.0 ± 10,901.0 ng/mL. In data set [1] (setting [3]), the “AUC (0-tn)” value is 258294.0 ± 93,104.7 μg/L*h, the “AUC (0-∞)” value worked out at 258320.9 ± 93120.6 ng·h/mL, the Cmax is given as 37204.0 ± 10,901.0 μg/L and the T1/2z is 0.8 ± 0.5 h. For the same molecule, the Tmax in data set [1] (setting [3]) is 1.9 ± 1.3 h. Also, in data set [1] (rat plasma, PC extract oral), the “area-under-the-curve (AUC) compared with other constituents” value is on record as “significantly exceeded that of the other constituents”.
Consider `COc1ccc(-c2cc(=O)c3c(O)cc(O)cc3o2)cc1` [Acacetin, acacetin], for which, in data set [1] (setting [4]), the “detection in plasma” value is “only detected in the initial plasma samples”.
Turning to `O=c1cc(-c2ccc(O)cc2)oc2c([C@@H]3O[C@H](CO)[C@@H](O)[C@H](O)[C@H]3O)c(O)cc(O)c12` [Vitexin, vitexin], in data set [1] (setting [4]), the “detection in plasma” value is listed as “only detected in the initial plasma samples”.
Take `COc1cc(O)c2c(=O)c(OC)c(-c3ccc(OC)c(OC)c3)oc2c1` [Retusin, retusin]: in data set [1] (male, rat, plasma, po, 4 g/kg), the area under the curve (AUC) was determined as 92.2 ± 33 ng·h/mL, the AUC(0-inf) was determined as 92.2 ± 33 ng·h/mL, the peak level (Cmax) was 33 ± 14.6 ng/mL and the Tmax is 0.9 ± 0.6 h. Also, the half-life in data set [1] (male, rat, plasma, po, 4 g/kg) was 1.5 ± 0.2 h.
For `C[C@@H]1O[C@@H](O[C@@H]2[C@@H](O)[C@H](OCCc3ccc(O)c(O)c3)O[C@H](COC(=O)/C=C/c3ccc(O)c(O)c3)[C@H]2O)[C@H](O)[C@H](O)[C@H]1O` [Isoacteoside, isoacteoside], in data set [1] (male, rat, plasma, po, 4 g/kg), the AUC worked out at 384 ± 93.8 ng·h/mL, the AUC(0-inf) is 384 ± 93.8 ng·h/mL, the Cmax turned out to be 109 ± 41.5 ng/mL and the Tmax turned out to be 0.5 ± 0.3 h. Besides, the half-life in data set [1] (male, rat, plasma, po, 4 g/kg) is 2.9 ± 0.3 h.
